Source: publication PMC7318222, “A Family of Water‐Immiscible, Dipolar Aprotic, Diamide Solvents from Succinic Acid” (Chemsuschem, 2020)
Entries after “also recorded” stand apart in the source; their conditions may differ.

How the values were obtained:
Miscibility with hexane = assay type: physicochemical; conditions: this work
AR = target: T1, AR (Homo sapiens, UniProt P10275); experiment: AR-anti CALUX reporter gene assay (antagonistic mode); assay type: cell-based; parameters: key: –: no effect observed up to the highest test concentration; conditions: PC20, 24 h exposure
T1 construct: expression construct for the full-length human receptor under investigation; expressed in transfected cells; host or cells: human U2-OS cells (ATCC HTB-96), stably transfected
T1 sequence (P10275 1-920): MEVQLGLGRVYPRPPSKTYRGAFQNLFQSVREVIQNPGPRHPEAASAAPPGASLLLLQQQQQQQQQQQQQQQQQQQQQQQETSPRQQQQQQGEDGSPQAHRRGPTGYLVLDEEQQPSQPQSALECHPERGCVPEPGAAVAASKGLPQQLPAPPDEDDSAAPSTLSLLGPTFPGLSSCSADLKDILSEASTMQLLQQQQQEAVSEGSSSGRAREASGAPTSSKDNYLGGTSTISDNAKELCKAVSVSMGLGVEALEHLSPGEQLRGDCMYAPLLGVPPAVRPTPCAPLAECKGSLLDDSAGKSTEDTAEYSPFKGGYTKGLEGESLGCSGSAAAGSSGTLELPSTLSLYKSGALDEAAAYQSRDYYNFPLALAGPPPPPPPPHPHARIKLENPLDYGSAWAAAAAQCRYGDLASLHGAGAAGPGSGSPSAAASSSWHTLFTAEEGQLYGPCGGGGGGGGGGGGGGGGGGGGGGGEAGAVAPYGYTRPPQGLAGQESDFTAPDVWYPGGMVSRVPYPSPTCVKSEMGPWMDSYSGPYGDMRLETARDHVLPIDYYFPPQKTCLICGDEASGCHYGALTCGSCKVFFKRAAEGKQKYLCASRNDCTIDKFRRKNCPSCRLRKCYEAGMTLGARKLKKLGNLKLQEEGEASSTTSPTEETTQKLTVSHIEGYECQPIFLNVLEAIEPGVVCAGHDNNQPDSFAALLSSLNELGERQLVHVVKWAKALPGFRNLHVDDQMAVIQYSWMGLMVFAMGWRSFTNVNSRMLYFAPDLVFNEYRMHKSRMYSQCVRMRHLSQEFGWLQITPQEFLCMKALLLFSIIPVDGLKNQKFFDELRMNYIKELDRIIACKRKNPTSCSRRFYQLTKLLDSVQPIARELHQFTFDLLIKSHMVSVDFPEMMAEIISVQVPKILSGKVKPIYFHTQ
Excerpt: Polyarylethersulfone of 55,000 Da were obtained from INGE.BASF, Germany. The CALUX cell lines have been described previously.[1] They are based on human U2-OS cells (ATCC, HTB-96) stably transfected with an expression construct for the full-length human receptor under investigation, and a reporter construct consisting of multimerized responsive elements for the cognate receptor coupled to a minimal promoter element (TATA) and a luciferase gene. Cells were maintained as described previously,[2] using cell culture media and supplements from Fisher Scientific as described in the experimental procedures section. […]
In vitro reporter gene assays
The automated CALUX assays were carried out similarly as described earlier,[12] with some adaptations. In brief, the assay was performed in CO2 independent medium (Fisher Scientific, […]
with 30 µl cell suspension/well. After 24 h, exposure medium was prepared. A dilution series in 0.5log unit increments of each test compound (in DMSO) was added to a 96-wells plate containing assay medium (2% v/v). Of this exposure mixture, 30 µl was added to the assay plates containing the CALUX cells, resulting in a final DMSO concentration of 1%. Additionally, DMSO blanks and a full dose response curve of the relevant reference compound were included on each plate. All samples were tested in triplicate. The preparation of the compound dilution series as well as the exposure of the cells were performed on a Hamilton StarLET liquid handling robot coupled to a Cytomat incubator.
Directly after exposure, plates were sealed with non-breathing plate seals (Plate sealer, easy seal […]
After 24 h the exposure medium was removed using an EL406 washer-dispenser (BioTek) and 10 µl/well triton lysisbuffer was added by the EL406.
Subsequently, the luciferase signal was measured in a luminometer (InfinitePro coupled to a Connect Stacker, both TECAN). In order to be able to detect receptor antagonism, several assays were also performed in antagonistic mode. The assay procedure was as described above, with the only exception that the EC50 concentration of the reference agonist was present during the exposure.
The luminometer data was analysed as follows; the average of the triplicate wells was determined, […]

[1] = shake flask; GC analysis of both layers with diglyme internal standard (SI); conditions: not told

SMILES | Hexane misc. (Miscibility with hexane) | LEC AR‐anti (AR) | log partition 1-octanol / water [1]
CCCCN(CC)C(=O)CCC(=O)N(CC)CCCC [EBSA, N,N′‐diethyl‐N,N′‐dibutylsuccindiamide] | yes^[a] | – | 2.72 log10 of concentration ratio (GC peak-area ratio)
CCCCN(C)C(=O)CCC(=O)N(C)CCCC [MBSA, N,N′‐dimethyl‐N,N′‐dibutylsuccindiamide] | yes^[a] | – | 1.65 log10 of concentration ratio (GC peak-area ratio)
CCCCN1CCCC1=O [NBP, N‐Butylpyrrolidinone, reference compound] | miscible; also recorded: yes^[a] | – | 0.99 log10 of concentration ratio (GC peak-area ratio)
CN1CCCC1=O [NMP, N‐methyl‐2‐pyrrolidone, reference compound] | no^[a] |  | 
CCCCN(CCCC)C(=O)CCC(=O)N(CCCC)CCCC [TBSA, N,N,N′,N′‐tetrabutylsuccindiamide] | yes^[a] | – | 3.77 log10 of concentration ratio (GC peak-area ratio)
